According to ChEMBL document CHEMBL1914338, “Tricyclic series of heat shock protein 90 (Hsp90) inhibitors part I: discovery of tricyclic imidazo[4,5-c]pyridines as potent inhibitors of the Hsp90 molecular chaperone” (J Med Chem, 2011):

Assays:
[1] = molecular target: T1, Heat shock protein HSP 90-beta (Homo sapiens, UniProt P08238)
Description: Binding affinity to human Hsp90beta assessed as association constant after overnight incubation by fluorescence polarization assay

[2] = tested on: P388; test: Antitumor activity in mouse P388 cells xenografted in B6D2F1 mouse assessed as median day of death at 80 mg/kg/day, ip for 4 days (reference value: 10 days); type: functional; details: route intraperitoneal
[3] = tested on: P388; test: Antitumor activity in mouse P388 cells xenografted in B6D2F1 mouse assessed as increase in mouse life span at 80 mg/kg/day, ip for 4 days relative to control; type: functional; details: route intraperitoneal
[4] = molecular target: T1, Heat shock protein HSP 90-beta; remark: listed apart in the source
Description: Inhibition of HSP90beta in human SKBR3 cells assessed as down regulation of HER2 expression levels after 24 hrs by FACS analysis

[5] = molecular target: T1, Heat shock protein HSP 90-beta; remark: listed apart in the source
Description: Inhibition of human Hsp90beta after overnight incubation by fluorescence polarization assay

T1 sequence (P08238 whole entry): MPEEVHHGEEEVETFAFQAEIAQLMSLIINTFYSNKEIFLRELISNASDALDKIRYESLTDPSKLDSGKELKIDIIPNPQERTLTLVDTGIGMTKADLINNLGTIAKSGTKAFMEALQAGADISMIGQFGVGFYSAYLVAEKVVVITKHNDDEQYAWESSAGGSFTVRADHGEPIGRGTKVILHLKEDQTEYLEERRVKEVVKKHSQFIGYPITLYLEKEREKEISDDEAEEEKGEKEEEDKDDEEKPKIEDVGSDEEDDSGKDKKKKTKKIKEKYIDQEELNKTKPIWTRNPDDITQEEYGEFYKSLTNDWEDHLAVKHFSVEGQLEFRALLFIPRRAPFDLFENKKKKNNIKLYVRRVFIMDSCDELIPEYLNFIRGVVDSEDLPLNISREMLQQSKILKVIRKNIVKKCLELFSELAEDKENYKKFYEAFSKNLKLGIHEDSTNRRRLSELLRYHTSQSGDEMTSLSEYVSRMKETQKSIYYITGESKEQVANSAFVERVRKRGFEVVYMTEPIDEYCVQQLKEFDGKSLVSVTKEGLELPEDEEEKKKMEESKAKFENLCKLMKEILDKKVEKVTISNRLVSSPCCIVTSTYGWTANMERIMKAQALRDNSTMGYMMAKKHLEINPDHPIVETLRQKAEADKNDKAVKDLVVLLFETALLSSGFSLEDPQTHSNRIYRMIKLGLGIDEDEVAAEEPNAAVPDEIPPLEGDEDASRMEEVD

C=CCNC1=C2C[C@@H](C)C[C@H](OC)[C@H](O)[C@@H](C)/C=C(\C)[C@H](OC(N)=O)[C@@H](OC)/C=C\C=C(/C)C(=O)NC(=CC1=O)C2=O [TANESPIMYCIN]
Ka [1]: 1.2 ×10⁴ /M/s
Time [2]: 13 days
Activity [3]: 30%

O=C(NC1c2ccccc2-c2c(-c3nc4ccncc4[nH]3)cccc21)c1ccncc1 (racemic)
IC50 [4]: 1.3 µM

O=C1c2ccccc2-c2c1cccc2-c1nc2cnccc2[nH]1
IC50 [4]: > 50 µM

Nc1cc(C(=O)NC2c3ccccc3-c3c(-c4nc5ccncc5[nH]4)cccc32)ccn1 (racemic)
IC50 [4]: 0.9 µM

Cc1onc(-c2ccc(O)cc2O)c1-c1ccccc1
IC50 [5]: 7.6 µM

NC(=O)CCC(=O)NC1c2ccccc2-c2c(-c3nc4cnccc4[nH]3)cccc21 (racemic)
IC50 [4]: 50 µM

O=C1c2ccccc2C2=C(c3nc4ccncc4[nH]3)CCCN12
IC50 [4]: > 50 µM

O=C(NC1c2ccccc2-c2c(-c3nc4ccccc4[nH]3)cccc21)c1cccc2ncccc12 (racemic)
IC50 [4]: 1.3 µM
